Measurements published in paper PMC10648159, “Novel MAGL Inhibitors Alleviate LPS-Induced Acute Kidney Injury by Inhibiting NLRP3 Inflammatory Vesicles, Modulating Intestinal Flora, Repairing the Intestinal Barrier, and Interfering with Serum Metabolism” (Molecules, 2023).

Biological target: T1, monoacylglycerol lipase (MAGL) (Homo sapiens, UniProt Q99685)
T1 construct: gene MGLL
T1 sequence (Q99685 1-303): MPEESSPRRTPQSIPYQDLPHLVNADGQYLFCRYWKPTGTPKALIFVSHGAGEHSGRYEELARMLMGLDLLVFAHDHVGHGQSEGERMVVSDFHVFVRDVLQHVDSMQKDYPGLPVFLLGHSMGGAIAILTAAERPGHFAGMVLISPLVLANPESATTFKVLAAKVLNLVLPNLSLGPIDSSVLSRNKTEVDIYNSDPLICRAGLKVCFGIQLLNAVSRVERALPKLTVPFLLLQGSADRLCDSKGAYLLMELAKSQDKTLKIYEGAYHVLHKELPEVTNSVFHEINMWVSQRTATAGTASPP
Experiment: Cayman Monoacylglycerol Lipase Inhibitor Screening Assay Kit, absorbance at […] nm, […] min preincubation; maximum inhibition about […]
Assay type: biochemical

IC50: 0.663 µM
Compound: CN1c2ccccc2CC1C(=O)N1CCC(C(=O)Nc2cccc(Cl)c2)CC1 (stereo not shown) [M-18C, MAGLZ-18(c)]
